Data as given in patent US9884846B2, “Crystalline salts of (S)-6-((1 acetylpiperidin-4-yl)amino)-N-(3-(3,4-dihydroisoquinolin-2(1H)-yl)-2-hydroxypropyl)pyrimidine-4-carboxamide” (GlaxoSmithKline Intellectual Property Development Limited, priority 2014, dated 2018).

What was measured:
[1] = Photolysis at 1×ICH solid state; assay type: physicochemical
[2] = Solid-state stability on storage (degradation; physical changes by XRPD); assay type: physicochemical; settings: 40° C./75% RH open vessel, and 50° C./Ambient closed vessel

SMILES	degradation by photolysis [1]	form change by XRPD after photolysis [1]	degradation ([2]; after 4 weeks at 25° C./60% RH open vessel) [%]	physical changes by XRPD analysis ([2]; after 6 weeks at 25° C./60% RH open vessel)	physical changes by XRPD analysis ([2]; after 2 weeks at 25° C./60% RH open vessel)
CC(=O)N1CCC(Nc2cc(C(=O)NC[C@H](O)CN3CCc4ccccc4C3)ncn2)CC1.O=C(O)CCC(=O)O [Compound B, succinate salt of (S)-6-((1-acetylpiperidin-4-yl)amino)-N-(3-(3,4-dihydroisoquinolin-2(1H)-yl)-2-hydroxypropyl)pyrimidine-4-carboxamide]	Approximately 1.4%	no form change observed	≤ 0.4	No physical changes detected	
CC(=O)N1CCC(Nc2cc(C(=O)NC[C@H](O)CN3CCc4ccccc4C3)ncn2)CC1.O=C(O)c1ccccc1 [Compound C, benzoate salt of (S)-6-((1-acetylpiperidin-4-yl)amino)-N-(3-(3,4-dihydroisoquinolin-2(1H)-yl)-2-hydroxypropyl)pyrimidine-4-carboxamide]	Approximately 1.6%	no form change observed			No physical changes detected
